Experiments:
Format in all cases: in vivo
Details in all cases: rated four to five weeks after treatment
[1] = system: ORYZA SATIVA, L. TEBONNET; assay: Preemergence herbicidal evaluation, ORYSAT (Rice, Tebonnet)
Description: (§1) Results of herbicide evaluation are expressed on a rating scale (0-9). The scale is based upon a visual observation of plant stand, vigor, malformation, size, chlorosis and overall plant appearance as compared with a control.
(§2) The preemergence herbicidal activity of the test compounds of the present invention is exemplified by the following tests in which the seeds of a variety of monocotyledonous and dicotyledonous plants are separately mixed with potting soil and planted on top of approximately one inch of soil in separate pint cups. After planting, the cups are sprayed with the selected aqueous acetone solution containing test compound in sufficient quantity to provide the equivalent of about 0.125 to 0.50 kg per hectare of test compound per cup. The treated cups are then placed on greenhouse benches, watered and cared for in accordance with conventional greenhouse procedures. From four to five weeks after treatment, the tests are terminated and each cup is examined and rated according to the rating system provided in Example 42.

[2] = system: AMBROSIA ARTEMISIIFOLIA, L.; assay: Preemergence herbicidal evaluation, AMBEL (Ragweed, Common)
Description: as §1, §2

IPOMOEA SPP. = assay: Preemergence herbicidal evaluation, IPOSS (Morningglory Spp.)
Description: as §1, §2

[3] = system: TRITICUM AESTIVUM, CV. APOLLO; assay: Preemergence herbicidal evaluation, TRZAWO (Wheat, Winter, CV. APOLLO)
Description: as §1, §2

ZEA MAYS L. = assay: Preemergence herbicidal evaluation, ZEAMX (Corn, Field)
Description: as §1, §2

[4] = system: SETARIA VIRIDIS, (L) BEAU; assay: Postemergence herbicidal evaluation, SETVI (Foxtail, Green)
Description: (§3) In the tests, seedling plants are grown in jiffy flats for about two weeks. The test compounds are dispersed in 50/50 acetone/water mixtures containing 0.5% TWEEN®20, a polyoxyethylene sorbitan monolaurate surfactant of Atlas Chemical Industries, in sufficient quantities to provide the equivalent of about 0.125 kg to 0.500 kg per hectare of active compound when applied to the plants through a spray nozzle operating at 40 psi for a predetermined time. After spraying, the plants are placed on greenhouse benches and are cared for in the usual manner, commensurate with conventional greenhouse practices. From four to five weeks after treatment, the seedling plants are examined and rated according to the rating system set forth below. Where more than one test is involved for a given compound, the data are averaged.
as §1

[5] = system: GLYCINE MAX(L)MERR. CV. WILLIAMS; assay: Preemergence herbicidal evaluation, GLXMAW (Soybean, Williams)
Description: as §1, §2

[6] = system: ECHINOCHLOA CRUS-GALLI, (L) BEAU; assay: Postemergence herbicidal evaluation, ECHCG (Barnyardgrass)
Description: as §3, §1

[7] = system: ABUTILON THEOPHRASTI, MEDIC.; assay: Preemergence herbicidal evaluation, ABUTH (Velvetleaf)
Description: as §1, §2

[8] = system: ECHINOCHLOA CRUS-GALLI, (L) BEAU; assay: Preemergence herbicidal evaluation, ECHCG (Barnyardgrass)
Description: as §1, §2

CASSIA OBTUSIFOLIA, L. = assay: Preemergence herbicidal evaluation, CASOB (Sicklepod)
Description: as §1, §2

[9] = system: SETARIA VIRIDIS, (L) BEAU; assay: Preemergence herbicidal evaluation, SETVI (Foxtail, Green)
Description: as §1, §2

In the case of `Cn1c(=O)n(CC(=O)O)c(=O)n(-c2cc(N3C(=O)C4=C(CCCC4)C3=O)c(F)cc2Cl)c1=O` [Compound 3, 3-[2-Chloro-5-(1-cyclohexene-1,2-dicarbox-imido)-4-fluorophenyl]tetrahydro-5-methyl-2,4,6-trioxo-s-triazine-1(2H)-acetic acid], the “Herbicide rating (0-9) ORYSAT” value ([1]; 0.125 kg/ha) is reported as 0.0, the “Herbicide rating (0-9) ORYSAT” value ([1]; 0.250 kg/ha) is reported as 0.0 and the “Herbicide rating (0-9) ORYSAT” value ([1]; 0.500 kg/ha) is reported as 0.0. For the same molecule, the “Herbicide rating (0-9) AMBEL” value ([2]; 0.125 kg/ha) was 0.0, the “Herbicide rating (0-9) AMBEL” value ([2]; 0.250 kg/ha) was 0.0 and the “Herbicide rating (0-9) AMBEL” value ([2]; 0.500 kg/ha) was 0.0. The “Herbicide rating (0-9) IPOSS” value (IPOMOEA SPP.; 0.125 kg/ha) was 0.0, the “Herbicide rating (0-9) IPOSS” value (IPOMOEA SPP.; 0.250 kg/ha) was 0.0 and the “Herbicide rating (0-9) IPOSS” value (IPOMOEA SPP.; 0.500 kg/ha) was 0.0. For the same molecule, the “Herbicide rating (0-9) TRZAWO” value ([3]; 0.125 kg/ha) was 0.0, the “Herbicide rating (0-9) TRZAWO” value ([3]; 0.250 kg/ha) was 0.0 and the “Herbicide rating (0-9) TRZAWO” value ([3]; 0.500 kg/ha) was 0.0. The “Herbicide rating (0-9) ZEAMX” value (ZEA MAYS L.; 0.125 kg/ha) was 0.0, the “Herbicide rating (0-9) ZEAMX” value (ZEA MAYS L.; 0.250 kg/ha) was 0.0 and the “Herbicide rating (0-9) ZEAMX” value (ZEA MAYS L.; 0.500 kg/ha) was 0.0. The “Herbicide rating (0-9) SETVI” value ([4]; 0.125 kg/ha) was 0.0, the “Herbicide rating (0-9) SETVI” value ([4]; 0.250 kg/ha) was 0.0 and the “Herbicide rating (0-9) SETVI” value ([4]; 0.500 kg/ha) was 0.0. For the same molecule, the “Herbicide rating (0-9) GLXMAW” value ([5]; 0.125 kg/ha) was 0.0, the “Herbicide rating (0-9) GLXMAW” value ([5]; 0.250 kg/ha) was 0.0 and the “Herbicide rating (0-9) GLXMAW” value ([5]; 0.500 kg/ha) was 0.0. For the same molecule, the “Herbicide rating (0-9) ECHCG” value ([6]; 0.125 kg/ha) was 0.0, the “Herbicide rating (0-9) ECHCG” value ([6]; 0.250 kg/ha) was 0.0 and the “Herbicide rating (0-9) ECHCG” value ([6]; 0.500 kg/ha) was 0.0. For the same molecule, the “Herbicide rating (0-9) ABUTH” value ([7]; 0.125 kg/ha) was 0.0, the “Herbicide rating (0-9) ABUTH” value ([7]; 0.250 kg/ha) was 0.0 and the “Herbicide rating (0-9) ABUTH” value ([7]; 0.500 kg/ha) was 0.0.
In the case of `COC(=O)Cn1c(=O)n(C)c(=O)n(-c2cc(N3C(=O)C4=C(CCCC4)C3=O)c(Cl)cc2Cl)c1=O` [Compound 6, Methyl 3-[2,4-dichloro-5-(1-cyclohexene-1,2-dicarboximido)phenyl]tetrahydro-5-methyl-2,4,6-trioxo-s-triazine-1(2H)-acetate], the “Herbicide rating (0-9) ORYSAT” value ([1]; 0.125 kg/ha) is reported as 4.0, the “Herbicide rating (0-9) ORYSAT” value ([1]; 0.250 kg/ha) is reported as 4.0 and the “Herbicide rating (0-9) ORYSAT” value ([1]; 0.500 kg/ha) is reported as 4.0. For the same molecule, the “Herbicide rating (0-9) IPOSS” value (IPOMOEA SPP.; 0.125 kg/ha) was 4.0, the “Herbicide rating (0-9) IPOSS” value (IPOMOEA SPP.; 0.250 kg/ha) was 4.0 and the “Herbicide rating (0-9) IPOSS” value (IPOMOEA SPP.; 0.500 kg/ha) was 4.0. For the same molecule, the “Herbicide rating (0-9) ECHCG” value ([8]; 0.125 kg/ha) was 0.0, the “Herbicide rating (0-9) ECHCG” value ([8]; 0.250 kg/ha) was 0.0 and the “Herbicide rating (0-9) ECHCG” value ([8]; 0.500 kg/ha) was 0.0. The “Herbicide rating (0-9) TRZAWO” value ([3]; 0.125 kg/ha) was 2.0, the “Herbicide rating (0-9) TRZAWO” value ([3]; 0.250 kg/ha) was 2.0 and the “Herbicide rating (0-9) TRZAWO” value ([3]; 0.500 kg/ha) was 2.0.
With `Cn1c(=O)n(CC(=O)OC(C)(C)C)c(=O)n(-c2cc(N3C(=O)C4=C(CCCC4)C3=O)c(Cl)cc2Cl)c1=O` [Compound 7, Tert-butyl 3-[2,4-dichloro-5-(1-cyclohexene-1,2-dicarboximido)phenyl]tetrahydro-5-methyl-2,4,6-trioxo-s-triazine-1(2H)-acetate] the “Herbicide rating (0-9) AMBEL” value ([2]; 0.125 kg/ha) was 0.0, the “Herbicide rating (0-9) AMBEL” value ([2]; 0.250 kg/ha) was 0.0 and the “Herbicide rating (0-9) IPOSS” value (IPOMOEA SPP.; 0.125 kg/ha) was 0.0. For the same molecule, the “Herbicide rating (0-9) IPOSS” value (IPOMOEA SPP.; 0.250 kg/ha) was 0.0, the “Herbicide rating (0-9) IPOSS” value (IPOMOEA SPP.; 0.500 kg/ha) was 0.0 and the “Herbicide rating (0-9) ECHCG” value ([8]; 0.125 kg/ha) was 0.0. For the same molecule, the “Herbicide rating (0-9) ECHCG” value ([8]; 0.250 kg/ha) was 0.0, the “Herbicide rating (0-9) ECHCG” value ([8]; 0.500 kg/ha) was 0.0 and the “Herbicide rating (0-9) CASOB” value (CASSIA OBTUSIFOLIA, L.; 0.125 kg/ha) was 0.0. For the same molecule, the “Herbicide rating (0-9) CASOB” value (CASSIA OBTUSIFOLIA, L.; 0.250 kg/ha) was 0.0, the “Herbicide rating (0-9) CASOB” value (CASSIA OBTUSIFOLIA, L.; 0.500 kg/ha) was 0.0 and the “Herbicide rating (0-9) ZEAMX” value (ZEA MAYS L.; 0.125 kg/ha) was 0.0. For the same molecule, the “Herbicide rating (0-9) ZEAMX” value (ZEA MAYS L.; 0.250 kg/ha) was 0.0, the “Herbicide rating (0-9) ZEAMX” value (ZEA MAYS L.; 0.500 kg/ha) was 0.0 and the “Herbicide rating (0-9) SETVI” value ([9]; 0.125 kg/ha) was 0.0. For the same molecule, the “Herbicide rating (0-9) SETVI” value ([9]; 0.250 kg/ha) was 0.0, the “Herbicide rating (0-9) SETVI” value ([9]; 0.500 kg/ha) was 0.0 and the “Herbicide rating (0-9) GLXMAW” value ([5]; 0.125 kg/ha) was 0.0. For the same molecule, the “Herbicide rating (0-9) GLXMAW” value ([5]; 0.250 kg/ha) was 0.0 and the “Herbicide rating (0-9) GLXMAW” value ([5]; 0.500 kg/ha) was 0.0.

Source: patent EP0745599A2, “1-(3-Heterocyclylphenyl)-s-triazine-2,4,6-oxo or thiotrione herbicidal agents” (American Cyanamid Company, priority 1995, dated 1996)
